Source: PubChem BioAssay (NCI)
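Following 48 hours of exposure in 96-well plates, responses at five concentrations were used to interpolate endpoints linearly. TGI denotes the concentration required for complete inhibition of growth.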

Legend:
Assay in all cases: DTP human tumour cell line panel, 48 h
A549 NSCLC = tested on: A549 NSCLC
ACHN renal = tested on: ACHN renal
CAKI-1 renal = tested on: CAKI-1 renal
CCRF-CEM leukemia = tested on: CCRF-CEM leukemia
DLD-1 colon = tested on: DLD-1 colon
DMS 114 small cell lung = tested on: DMS 114 small cell lung
DMS 273 small cell lung = tested on: DMS 273 small cell lung
EKVX NSCLC = tested on: EKVX NSCLC
HCC-2998 colon = tested on: HCC-2998 colon
HCT-116 colon = tested on: HCT-116 colon
HL-60(TB) leukemia = tested on: HL-60(TB) leukemia
HOP-18 NSCLC = tested on: HOP-18 NSCLC
HOP-92 NSCLC = tested on: HOP-92 NSCLC
HT29 colon = tested on: HT29 colon
IGROV1 ovarian = tested on: IGROV1 ovarian
K-562 leukemia = tested on: K-562 leukemia
KM12 colon = tested on: KM12 colon
LXFL 529 NSCLC = tested on: LXFL 529 NSCLC
MOLT-4 leukemia = tested on: MOLT-4 leukemia
NCI-H226 lung = tested on: NCI-H226 lung
NCI-H460 lung = tested on: NCI-H460 lung
NCI-H522 lung = tested on: NCI-H522 lung
OVCAR-3 ovarian = tested on: OVCAR-3 ovarian
OVCAR-5 ovarian = tested on: OVCAR-5 ovarian
OVCAR-8 ovarian = tested on: OVCAR-8 ovarian
RPMI-8226 leukemia = tested on: RPMI-8226 leukemia
RXF 393 renal = tested on: RXF 393 renal
RXF-631 renal = tested on: RXF-631 renal
SF-268 CNS = tested on: SF-268 CNS
SF-295 CNS = tested on: SF-295 CNS
SF-539 CNS = tested on: SF-539 CNS
SK-MEL-2 melanoma = tested on: SK-MEL-2 melanoma
SK-MEL-28 melanoma = tested on: SK-MEL-28 melanoma
SK-MEL-5 melanoma = tested on: SK-MEL-5 melanoma
SK-OV-3 ovarian = tested on: SK-OV-3 ovarian
SN12C renal = tested on: SN12C renal
SNB-19 CNS = tested on: SNB-19 CNS
SNB-75 CNS = tested on: SNB-75 CNS
SNB-78 CNS = tested on: SNB-78 CNS
SR leukemia = tested on: SR leukemia
SW-620 colon = tested on: SW-620 colon
TK-10 renal = tested on: TK-10 renal
U251 CNS = tested on: U251 CNS
UACC-257 melanoma = tested on: UACC-257 melanoma
UACC-62 melanoma = tested on: UACC-62 melanoma
UO-31 renal = tested on: UO-31 renal
786-0 renal = tested on: 786-0 renal
A498 renal = tested on: A498 renal
COLO 205 colon = tested on: COLO 205 colon
HCT-15 colon = tested on: HCT-15 colon
HOP-62 NSCLC = tested on: HOP-62 NSCLC
KM20L2 colon = tested on: KM20L2 colon
M14 melanoma = tested on: M14 melanoma
M19-MEL melanoma = tested on: M19-MEL melanoma
MALME-3M melanoma = tested on: MALME-3M melanoma
NCI-H23 lung = tested on: NCI-H23 lung
OVCAR-4 ovarian = tested on: OVCAR-4 ovarian
XF 498 CNS = tested on: XF 498 CNS

Question: Which TGI (A549 NSCLC) does the source give for `C=C1C(=O)O[C@@H]2[C@H]1CCC(C)=C1C=CC(=O)[C@]12C` here?
Answer: 73 µM

Question: And the TGI (ACHN renal)?
Answer: 30 µM

Question: What about the TGI (CAKI-1 renal) of the same molecule?
Answer: 33.2 µM

Question: What about the TGI (CCRF-CEM leukemia) of the same molecule?
Answer: 26 µM

Question: And the TGI (DLD-1 colon)?
Answer: 32.8 µM

Question: And the TGI (DMS 114 small cell lung)?
Answer: 29.8 µM

Question: And the TGI (DMS 273 small cell lung)?
Answer: 41.1 µM

Question: What about the TGI (EKVX NSCLC) of the same molecule?
Answer: 31.1 µM

Question: What about the TGI (HCC-2998 colon) of the same molecule?
Answer: 27.8 µM

Question: And the TGI (HCT-116 colon)?
Answer: 26.7 µM

Question: And the TGI (HL-60(TB) leukemia)?
Answer: 14 µM

Question: And the TGI (HOP-18 NSCLC)?
Answer: 29.7 µM

Question: And the TGI (HOP-92 NSCLC)?
Answer: 18.5 µM

Question: What about the TGI (HT29 colon) of the same molecule?
Answer: 24.2 µM

Question: What about the TGI (IGROV1 ovarian) of the same molecule?
Answer: 46.7 µM

Question: What about the TGI (K-562 leukemia) of the same molecule?
Answer: 90.2 µM

Question: What about the TGI (KM12 colon) of the same molecule?
Answer: 31.4 µM

Question: And the TGI (LXFL 529 NSCLC)?
Answer: 26.7 µM

Question: And the TGI (MOLT-4 leukemia)?
Answer: 39.4 µM

Question: What about the TGI (NCI-H226 lung) of the same molecule?
Answer: 43.4 µM

Question: And the TGI (NCI-H460 lung)?
Answer: 35.1 µM

Question: What about the TGI (NCI-H522 lung) of the same molecule?
Answer: 6.96 µM

Question: What about the TGI (OVCAR-3 ovarian) of the same molecule?
Answer: 31 µM

Question: What about the TGI (OVCAR-5 ovarian) of the same molecule?
Answer: 31.8 µM

Question: What about the TGI (OVCAR-8 ovarian) of the same molecule?
Answer: 36.1 µM

Question: And the TGI (RPMI-8226 leukemia)?
Answer: 49.7 µM

Question: And the TGI (RXF 393 renal)?
Answer: 29.8 µM

Question: What about the TGI (RXF-631 renal) of the same molecule?
Answer: 23.6 µM

Question: And the TGI (SF-268 CNS)?
Answer: 45.9 µM

Question: And the TGI (SF-295 CNS)?
Answer: 32.7 µM

Question: What about the TGI (SF-539 CNS) of the same molecule?
Answer: 30 µM

Question: And the TGI (SK-MEL-2 melanoma)?
Answer: 79.4 µM

Question: What about the TGI (SK-MEL-28 melanoma) of the same molecule?
Answer: 23.4 µM

Question: What about the TGI (SK-MEL-5 melanoma) of the same molecule?
Answer: 27.5 µM

Question: What about the TGI (SK-OV-3 ovarian) of the same molecule?
Answer: 61.4 µM

Question: What about the TGI (SN12C renal) of the same molecule?
Answer: 29.3 µM

Question: What about the TGI (SNB-19 CNS) of the same molecule?
Answer: 71.8 µM

Question: What about the TGI (SNB-75 CNS) of the same molecule?
Answer: 34.4 µM

Question: And the TGI (SNB-78 CNS)?
Answer: 18.9 µM

Question: And the TGI (SR leukemia)?
Answer: 43 µM

Question: What about the TGI (SW-620 colon) of the same molecule?
Answer: 18.4 µM

Question: What about the TGI (TK-10 renal) of the same molecule?
Answer: 38 µM

Question: What about the TGI (U251 CNS) of the same molecule?
Answer: 54 µM

Question: What about the TGI (UACC-257 melanoma) of the same molecule?
Answer: 27.1 µM

Question: And the TGI (UACC-62 melanoma)?
Answer: 22.6 µM

Question: What about the TGI (UO-31 renal) of the same molecule?
Answer: 28.7 µM

Question: What does the source list for `CN(C)CCC(CCN(C)C)=NOC(=O)c1ccccc1`?
Answer: TGI (786-0 renal): > 100 µM; TGI (A498 renal): > 100 µM; TGI (A549 NSCLC): > 100 µM; TGI (ACHN renal): > 100 µM; TGI (CAKI-1 renal): > 100 µM; TGI (CCRF-CEM leukemia): > 100 µM; TGI (COLO 205 colon): > 100 µM; TGI (DLD-1 colon): > 100 µM; TGI (DMS 114 small cell lung): > 100 µM; TGI (DMS 273 small cell lung): > 100 µM; TGI (EKVX NSCLC): > 100 µM; TGI (HCC-2998 colon): > 100 µM; TGI (HCT-116 colon): > 100 µM; TGI (HCT-15 colon): > 100 µM; TGI (HL-60(TB) leukemia): > 100 µM; TGI (HOP-18 NSCLC): > 100 µM; TGI (HOP-62 NSCLC): > 100 µM; TGI (HT29 colon): > 100 µM; TGI (IGROV1 ovarian): > 100 µM; TGI (K-562 leukemia): > 100 µM; TGI (KM12 colon): > 100 µM; TGI (KM20L2 colon): > 100 µM; TGI (LXFL 529 NSCLC): > 100 µM; TGI (M14 melanoma): > 100 µM; TGI (M19-MEL melanoma): > 100 µM; TGI (MALME-3M melanoma): > 100 µM; TGI (MOLT-4 leukemia): > 100 µM; TGI (NCI-H23 lung): > 100 µM; TGI (NCI-H460 lung): > 100 µM; TGI (NCI-H522 lung): > 100 µM; TGI (OVCAR-3 ovarian): > 100 µM; TGI (OVCAR-4 ovarian): > 100 µM; TGI (OVCAR-8 ovarian): > 100 µM; TGI (RPMI-8226 leukemia): > 100 µM; TGI (RXF 393 renal): > 100 µM; TGI (RXF-631 renal): > 100 µM; TGI (SF-268 CNS): > 100 µM; TGI (SF-295 CNS): > 100 µM; TGI (SF-539 CNS): > 100 µM; TGI (SK-MEL-2 melanoma): > 100 µM; TGI (SK-MEL-28 melanoma): > 100 µM; TGI (SK-MEL-5 melanoma): > 100 µM; TGI (SK-OV-3 ovarian): > 100 µM; TGI (SN12C renal): > 100 µM; TGI (SNB-19 CNS): > 100 µM; TGI (SNB-75 CNS): > 100 µM; TGI (SW-620 colon): > 100 µM; TGI (TK-10 renal): > 100 µM; TGI (U251 CNS): > 100 µM; TGI (UACC-257 melanoma): > 100 µM; TGI (UACC-62 melanoma): > 100 µM; TGI (UO-31 renal): > 100 µM; TGI (XF 498 CNS): > 100 µM
